Laboratory results published in ChEMBL document CHEMBL1140110, “Hydration of drug-DNA complexes: greater water uptake for adriamycin compared to daunomycin” (J Med Chem, 2008).

Legend:
DNA [1] = assay: Binding affinity to calf thymus DNA at 1 uM in BPES buffer by fluorescence titration relative to daunomycin; format: nucleic-acid assay; settings: Bos taurus
DNA [2] = assay: Binding affinity to calf thymus DNA in BPES buffer assessed as binding constant K/10^5 by fluorescence titration; format: nucleic-acid assay; settings: Bos taurus

`COc1cccc2c1C(=O)c1c(O)c3c(c(O)c1C2=O)C[C@@](O)(C(=O)CO)C[C@@H]3O[C@H]1C[C@H](N)[C@H](O)[C@H](C)O1` showed a fold change (FC) (DNA [1]) of 2 and a K (DNA [2]) of 605000 M⁻¹.
Work on `COc1cccc2c1C(=O)c1c(O)c3c(c(O)c1C2=O)C[C@@](O)(C(C)=O)C[C@@H]3O[C@H]1C[C@H](N)[C@H](O)[C@H](C)O1` yielded a K (DNA [2]) of 230000 M⁻¹.
